{"source": "patent US9810690B2", "about": "“Method for screening inhibitors of Ras” (Araxes Pharma LLC, priority 2015, dated 2017)", "key": {"RALA G23C": {"target": "T1, RALA G23C (Homo sapiens, UniProt P11233, G23C)", "T1 construct": "(residues 11-183, either WT or G23C); hexahistidine (TEV-cleavable); made in house; host or cells: Escherichia coli BL21 (DE)", "T1 sequence (P11233 11-183 G23C)": "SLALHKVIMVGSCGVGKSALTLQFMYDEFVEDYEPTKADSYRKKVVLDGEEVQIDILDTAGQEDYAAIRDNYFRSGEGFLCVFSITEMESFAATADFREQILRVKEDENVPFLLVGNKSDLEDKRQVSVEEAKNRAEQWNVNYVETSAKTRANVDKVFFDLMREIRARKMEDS", "assay": "Rate constant of covalent reaction of competition probes with RALA mutant (mass spectrometry)", "type": "binding", "experimental": "Hexahistidine-tagged recombinant human RalA (“hexahistidine” disclosed as SEQ ID NO: 49) (residues 11-183, either WT or G23C) was transformed into Escherichia coli (BL21 (DE)). After the bacterial grew to an OD(600) of 0.4-0.6 in Terrific Broth containing 30 mg/L kanamycin at 37° C., induction was carried out at 18° C. using 0.5 mM IPTG and growth was continued at 18° C. for about 18 h. The bacteria were harvested by centrifugation and the obtained pellet was either stored at −80° C. or used freshly for the subsequent steps.\n(§1) RALA mutant proteins were produced with one mutation to cysteine at the 23 position (G23C) relative to SEQ ID NO: 8 when optimally aligned. KRAS mutant proteins were produced with one mutation to cysteine at the 12 position (G12C) relative to SEQ ID NO: 1 when optimally aligned. The RALA and KRAS mutants were tested for reactivity (e.g., covalent modification of the mutant) with a panel of competition probes that bind the Switch II binding pocket and covalently modify the substituted amino acid with appropriately placed electrophiles based on modeling/docking studies. One such inhibitor covalently bound to RAS (via G12) is depicted in FIG. 2. Screening was carried out by mass spectrometry on an Agilent RapidFire or ThermoScientific Q Exactive system."}, "KRAS G12C": {"target": "T2, KRAS G12C (Homo sapiens, UniProt P01116, G12C)", "T2 construct": "made in house", "assay": "Rate constant of covalent reaction of competition probes with KRAS mutant (mass spectrometry)", "type": "binding", "experimental": "as §1"}, "K-Ras D92C": {"target": "T3, K-Ras D92C (Homo sapiens, UniProt P01116, D92C)", "T3 construct": "made in house", "assay": "QQQ mass spectrometry competition assay for K-Ras D92C binding using competition probe CP-008", "details": "CP-008 (100 nM); test compound over a range of concentrations; incubated for 6 h; FIG. 6", "experimental": "The GDP-loaded K-Ras D92C protein (which also contains a histidine tag) was diluted in a HEPES containing assay buffer shortly before use in the QQQ-assay.\nTo start the assay an internal nonreactive control compound and competition probe compound (CP-008) were added to the protein solution to form a master mix. The master mix was quickly dispersed in a 96-well plate followed by addition a DMSO stock of the compound of interest. […]\nTo quench the reaction, the reaction mix was transferred to 2% of formic acid in water (0.2% final in the quenched reaction) in a second plate. After sealing the second plate and quick centrifugation the samples were frozen at −80° C.\nThe frozen samples were sent on dry ice to Pure Honey Technologies for QQQ-quantitation to determine probe and internal control compound amount in each well. For analysis of the obtained data, the ratio of probe to internal control compound was calculated for each well. The assay window was determined by a negative control (DMSO only, no inhibition) and a positive control (100 μM final of CP-008 at a time point where the probe is fully reacted with protein; assigned 100% inhibition) and allowed the calculation of inhibition of probe depletion by the compound of interest."}}, "data": [{"smiles": "C=CC(=O)N1CCN(c2ncnc3c(F)c(-c4c(O)cccc4F)c(Cl)cc23)CC1", "note": "[CP-012]", "values": [{"measurement": "Rate Constant for Reaction with Indicated Protein, RALA G23C", "setting": "RALA G23C", "value": "<1", "unit": "M⁻¹ s⁻¹"}, {"measurement": "Rate Constant for Reaction with Indicated Protein, KRAS G12C", "setting": "KRAS G12C", "value": 310, "unit": "M⁻¹ s⁻¹"}]}, {"smiles": "C=CC(=O)N1CCN(c2ncnc3cc(Cl)c(-c4ccc(Cl)cc4)cc23)CC1", "note": "[CP-013]", "values": [{"measurement": "Rate Constant for Reaction with Indicated Protein, RALA G23C", "setting": "RALA G23C", "value": 10.2, "unit": "M⁻¹ s⁻¹"}]}, {"smiles": "C=CC(=O)N1CCN(c2ncnc3cc(Cl)c(-c4ccccc4)cc23)CC1", "note": "[CP-014]", "values": [{"measurement": "Rate Constant for Reaction with Indicated Protein, RALA G23C", "setting": "RALA G23C", "value": 4.0, "unit": "M⁻¹ s⁻¹"}]}, {"smiles": "C=CC(=O)N1CCN(c2ncnc3cc(Cl)c(-c4ccc(Br)cc4)cc23)CC1", "note": "[CP-015]", "values": [{"measurement": "Rate Constant for Reaction with Indicated Protein, RALA G23C", "setting": "RALA G23C", "value": 9.0, "unit": "M⁻¹ s⁻¹"}]}, {"smiles": "C=CC(=O)N1CCN(c2ncnc3cc(Cl)c(-c4ccc(C#N)cc4)cc23)CC1", "note": "[CP-016]", "values": [{"measurement": "Rate Constant for Reaction with Indicated Protein, RALA G23C", "setting": "RALA G23C", "value": 2.6, "unit": "M⁻¹ s⁻¹"}]}, {"smiles": "C=CC(=O)N1CCN(c2ncnc3cc(Cl)c(-c4ccc(O)cc4)cc23)CC1", "note": "[CP-017]", "values": [{"measurement": "Rate Constant for Reaction with Indicated Protein, RALA G23C", "setting": "RALA G23C", "value": 6.0, "unit": "M⁻¹ s⁻¹"}]}, {"smiles": "C=CC(=O)N1CCN(c2ncnc3cc(Cl)c(-c4cccs4)cc23)CC1", "note": "[CP-018]", "values": [{"measurement": "Rate Constant for Reaction with Indicated Protein, RALA G23C", "setting": "RALA G23C", "value": 17, "unit": "M⁻¹ s⁻¹"}]}, {"smiles": "C=CC(=O)N1CCN(c2ncnc3cc(Cl)c(-c4ccc(Cl)s4)cc23)CC1", "note": "[CP-019]", "values": [{"measurement": "Rate Constant for Reaction with Indicated Protein, RALA G23C", "setting": "RALA G23C", "value": 6.3, "unit": "M⁻¹ s⁻¹"}]}, {"smiles": "C=CC(=O)N1CCN(c2ncnc3cc(Cl)c(-c4ccc(C)s4)cc23)CC1", "note": "[CP-020]", "values": [{"measurement": "Rate Constant for Reaction with Indicated Protein, RALA G23C", "setting": "RALA G23C", "value": 19, "unit": "M⁻¹ s⁻¹"}]}, {"smiles": "CC(=O)N1CCN(c2nc(OCCCN(C)C)nc3c(F)c(-c4cc(O)cc5ccccc45)c(Cl)cc23)CC1", "note": "[CP-023, 1-(4-(6-chloro-2-(3-(dimethylamino)propoxy)-8-fluoro-7-(3-hydroxynaphthalen-1-yl)quinazolin-4-yl)piperazin-1-yl)ethanone]", "values": [{"measurement": "inhibition of competition probe (CP-008) depletion by D92C K-Ras", "setting": "K-Ras D92C", "value": "less CP-008 is bound to K-Ras"}]}, {"smiles": "CN(C)CCCOc1nc(N2CCN(C=O)CC2)c2cc(Cl)c(-c3cc(O)cc4ccccc34)c(F)c2n1", "note": "[CP-024, 4-(6-chloro-2-(3-(dimethylamino)propoxy)-8-fluoro-7-(3-hydroxynaphthalen-1-yl)quinazolin-4-yl)piperazine-1-carbaldehyde]", "values": [{"measurement": "inhibition of competition probe (CP-008) depletion by D92C K-Ras", "setting": "K-Ras D92C", "value": "less CP-008 is bound to K-Ras"}]}]}
